Assay results published in publication PMC6121244, “Differences in Functional Expression of Connexin43 and NaV1.5 by Pan- and Class-Selective Histone Deacetylase Inhibition in Heart” (International Journal of Molecular Sciences, 2018).
Where two headings read alike, the source gives them in different places.

How the values were obtained:
HDAC1 [1] = test system: HDAC1
HDAC8 [2] = test system: HDAC8; parameters: method as in PMID 17868033; details: >100,000 = incomplete inhibition at 100 μM; cited from earlier work
HDAC4 = test system: HDAC4; parameters: method as in PMID 17868033; details: >100,000 = incomplete inhibition at 100 μM; cited from earlier work
late INa in NMVMs = experiment: Late INa, whole cell patch clamp; type: cell-based, mouse
Excerpt: Increases in late or persistent INa have been linked to cardiac arrhythmias and heart failure. […] . Subsequently, we modified a voltage clamp ramp protocol designed to generate late INa I–V relationships. […] .

[3] = test system: ventricular gap junction conductance (gj), Cx43-mediated; experiment: Gap junction conductance (gj), dual whole cell patch clamp on NMVM cell pairs; type: cell-based, mouse
Experimental: Final DMSO levels were <0.005% (vol/vol).
Gap junction currents (Ij) were recorded in the dual whole cell configuration according to previously published methods. Upon establishing a dual whole cell patch, Ij was recorded using a 30 s, 20 mV trans-junctional voltage protocol. All dual whole cell current recordings were low-pass filtered at 500 Hz and digitized at 2 KHz using pClamp 8.2 and graphical analysis performed using Origin 7.5 or 8.6 software as previously described.

[4] = test system: Cx43 protein expression in NMVMs; experiment: Western blot of Cx43 protein level; type: cell-based, mouse; details: 24 h
[5] = test system: HeLa nuclear extract HDAC activity; parameters: method as in PMID 17455259; details: incomplete inhibition; cited from earlier work
HDAC9 = test system: HDAC9; parameters: method as in PMID 17868033; details: >100,000 = incomplete inhibition at 100 μM; cited from earlier work
[6] = test system: acetyl-α-tubulin and acetyl-histone 3; experiment: Western blot of acetylation markers; details: 1 μM MS-275, 24 h
HDAC1 [7] = details: read-out: IC50 HDAC1, cited from earlier work
[8] = test system: total HDAC activity in cultured neonatal mouse ventricular cardiomyocytes; experiment: Fluor de Lys total HDAC activity assay in cultured ventricular cardiomyocytes; type: cell-based; details: NMVMs, 18–24 h treatment; for C1, decay constant of first exponential component of HDAC inhibition curve / C2, decay constant of second exponential component of HDAC inhibition curve: double exponential fit
Experimental: Neonatal mice born from an inbred C57BL/6 mouse colony were anesthetized using isoflurane and the hearts were excised in accordance with procedures approved by the SUNY Upstate Medical University Institutional Animal Care and Use Committee (IACUC) # 263 on 15 March 2017. The excised hearts were separated into atria and ventricles and exposed to collagenase solution for digestion. The dissociated cells were pre-plated for 30 min to reduce fibroblast content by differential adhesion and the supernatant was collected, centrifuged and re-suspended in 1 mL/heart of M199/10% FBS culture media. The primary cells were plated into 96-well plates for HDAC activity assays, 35 mm culture dishes for patch clamp electrophysiology, or 60 mm culture dishes and homogenized after 3 days for Western blots.
Aliquots of 2 × 10^5 ventricular myocytes per well (96-well plate) were grown in 200 μL of 200 μM bromodeoxyuridine (BrDU)/M199, exchanged daily. Cell densities were counted with a hemocytometer and seeded into the wells. Wells were incubated with 2000 pmoles of the acetylated Fluor-de-Lys® substrate for 8 h during HDAC inhibition. […]

[9] = test system: cardiac sodium current (INa) in NMVMs, primarily NaV1.5; experiment: Cardiac sodium current (INa) density and Vm-dependent gNa activation/inactivation, whole cell patch clamp; type: cell-based, mouse; details: 18–24 h
Excerpt: Since both the activation and inactivation of INa are dependent on the membrane potential (Vm), we calculated the normalized Na^+ conductance (gNa) by dividing the average peak INa by the difference between Vm and the reversal potential (Erev) for INa, and then divided the gNa value for each Vm by the maximum gNa value for each experiment. The gNa–Vm curves were fit with a Boltzmann function gNa= gNamax+ (gNa− gNamax)/[1+exp((Vm− V1/2)/dVm)] using Origin 8.6. […] Final DMSO levels were <0.005% (vol/vol).

HDAC8 [10] = test system: HDAC8; parameters: method as in PMID 17455259; details: cited from earlier work
[11] = test system: NaV1.5 protein expression in NMVMs; experiment: Western blot of NaV1.5 protein level; type: cell-based, mouse; details: 24 h
IK,to and IK,ss in NMVMs = experiment: Transient and steady state outward K+ currents, whole cell patch clamp
[12] = test system: cardiac sodium current (INa) in NMVMs, primarily NaV1.5; parameters: method as in PMID 27638876; details: previous experiments ref 13; cited from earlier work
[13] = test system: total HDAC activity in cultured neonatal mouse ventricular cardiomyocytes; details: NMVMs, cited from earlier work; for C1, decay constant of first exponential component of HDAC inhibition curve / C2, decay constant of second exponential component of HDAC inhibition curve: double exponential fit
HDAC6 = details: cited from earlier work
HDAC3 = test system: HDAC3; parameters: method as in PMID 17868033; details: >100,000 = incomplete inhibition at 100 μM; cited from earlier work
HDAC5 = target: HDAC5; parameters: method as in PMID 20139990; details: cited from earlier work
HDAC2 = target: HDAC2; parameters: method as in PMID 20139990; details: cited from earlier work
HDAC1 [14] = target: HDAC1; parameters: method as in PMID 20139990; details: cited from earlier work
HDAC7 [15] = target: HDAC7; parameters: method as in PMID 20139990; details: cited from earlier work
HDAC1 [16] = test system: HDAC1; parameters: method as in PMID 17868033; details: >100,000 = incomplete inhibition at 100 μM; cited from earlier work
HDAC7 [17] = test system: HDAC7; parameters: method as in PMID 17868033; details: >100,000 = incomplete inhibition at 100 μM; cited from earlier work
[18] = read-out: IC50(2), low affinity site, total HDAC activity, IC50 = 0.693·C2
[19] = adjusted values from published data ref 14
[20] = 25, 100, 500, 2500 nM panobinostat, p < 0.05
[21] = adjusted values from published data ref 13

Nc1ccccc1NC(=O)c1ccc(CNC(=O)OCc2cccnc2)cc1 [Entinostat, entinostat]
preferential inhibition of HDAC1 over other HDACs (HDAC1 [1]): 10–100 fold
effect on late INa current density (late INa in NMVMs; 1 μM entinostat 18–24 h, Vm ramp): no increase in late INa
effect on ventricular gj ([3]; 5 μM entinostat, 18–24 h): significant reduction in gj
Cx43 protein level ([4]; 1 μM entinostat): no significant changes
IC50 [5]: 11 µM
Ac-H3 and Ac-α-tubulin signals [6]: only increased the Ac-H3 signal
C1, decay constant of first exponential component of HDAC inhibition curve [8]: 629 ± 166 nM
C2, decay constant of second exponential component of HDAC inhibition curve [8]: 12,926 ± 3655 nM
IC50 ([8]; read-out: IC50(1), high affinity site, total HDAC activity, IC50 = 0.693·C1): 436 ± 115 nM
IC50 [8, 18]: 8960 ± 2530 nM
effect on peak Na+ current density ([9]; 1 μM entinostat): no significant effect
NaV1.5 protein level ([11]; 1 μM entinostat): no significant changes
transient outward and steady state K+ currents (IK,to and IK,ss in NMVMs; 1 μM MS275, 24 h): no si gni ficant chang es

C/C=C1\NC(=O)[C@H]2CSSCC/C=C/[C@H](CC(=O)N[C@H](C(C)C)C(=O)N2)OC(=O)[C@H](C(C)C)NC1=O [FK228, romidepsin]
positive shift in half activation voltage (V½) [12]: +2 to +8 mV
shift in Vm-dependent gNa inactivation curve [12]: no shift
C1, decay constant of first exponential component of HDAC inhibition curve [13, 19]: 7.9 ± 0.9 nM
C2, decay constant of second exponential component of HDAC inhibition curve [13, 19]: 2524 ± 678 nM
IC50 ([13]; adjusted values from published data ref 14, read-out: IC50(1), high affinity site, total HDAC activity): 5.5 ± 0.6 nM
IC50 ([13]; adjusted values from published data ref 14, read-out: IC50(2), low affinity site, total HDAC activity): 1750 ± 470 nM

CCCC(=O)[O-].[Na+] [NaB, sodium butyrate]
increase in gj ([3]; 5 mM NaB alone): 26%
effect on gj ([3]; increasing concentrations of NaB): non-significantly increased gj in a concentration-dependent manner
activity against the class IIb HDAC6 (HDAC6): no activity

Cc1[nH]c2ccccc2c1CCNCc1ccc(/C=C/C(=O)NO)cc1 [Panobinostat, panobinostat]
effect on late INa (late INa in NMVMs; 100 or 500 nM panobinostat overnight, average current 100 to 150 msec): no difference in late INa
amplitude of exponential fit of decline in gj ([3]; 18–24 h, exponential fit): 48.5
effect on ventricular gj ([3]; 100, 500 or 1000 nM panobinostat, 18–24 h): significant dose-dependent decrease
Cx43 protein level [4, 20]: concentration-dependent decrease
C1, decay constant of first exponential component of HDAC inhibition curve [8]: 57.4 ± 22.2 nM
C2, decay constant of second exponential component of HDAC inhibition curve [8]: 2959 ± 838 nM
IC50 ([8]; IC50 = 0.693·C1, listed as LBH589, read-out: IC50(1), high affinity site, total HDAC activity): 39.8 ± 15.4 nM
IC50 ([8]; IC50 = 0.693·C1, read-out: IC50(1), high affinity site, total HDAC activity): ~40 nM
IC50 [8, 18]: ~2000 nM
IC50 ([8]; read-out: IC50(2), low affinity site, total HDAC activity, IC50 = 0.693·C2, listed as LBH589): 2050 ± 581 nM
effect on peak cardiac Na+ current density ([9]; 100 or 500 nM panobinostat): decreased the cardiac sodium current density in a dose-dependent manner
NaV1.5 protein level [11, 20]: concentration-dependent decrease
transient outward and steady state K+ currents (IK,to and IK,ss in NMVMs; 100 nM, 24 h): No signifi cant changes

CC(/C=C/C(=O)NO)=C\[C@@H](C)C(=O)c1ccc(N(C)C)cc1 [TSA, Trichostatin A]
positive shift in half activation voltage (V½) [12]: +2 to +8 mV
shift in Vm-dependent gNa inactivation curve [12]: no shift
C1, decay constant of first exponential component of HDAC inhibition curve [13, 21]: 10.6 ± 1.3 nM
C2, decay constant of second exponential component of HDAC inhibition curve [13, 21]: 258 ± 76 nM
IC50 ([13]; adjusted values from published data ref 13, read-out: IC50(1), high affinity site, total HDAC activity): 7.3 ± 0.9 nM
IC50 ([13]; adjusted values from published data ref 13, read-out: IC50(2), low affinity site, total HDAC activity): 179 ± 53 nM

O=C(CCCCCCC(=O)Nc1ccc([C@H]2O[C@@H](CSc3nc(-c4ccccc4)c(-c4ccccc4)o3)C[C@@H](c3ccc(CO)cc3)O2)cc1)NO [Tubacin, tubacin]
Ki (HDAC5): 1500 ± 250 nM
Ki (HDAC2): 42 ± 3.5 nM
increase in gj ([3]; 10 μM tubacin alone): 9%
effect on gj ([3]; 20 μM tubacin, highest tested dose): slight decrease
effect on gj ([3]; increasing concentrations of tubacin): non-significant increase and then decrease in gj with increasing concentration
Ki (HDAC1 [14]): 28 ± 4 nM
Ki (HDAC7 [15]): 8.5 ± 1.5 µM

O=C(CCCCCCC(=O)Nc1ccccc1)NO [VOR, suberoylanilide hydroxamic acid]
C1, decay constant of first exponential component of HDAC inhibition curve [13, 21]: 140 ± 30 nM
C2, decay constant of second exponential component of HDAC inhibition curve [13, 21]: 1086 ± 312 nM

CCCC(CCC)C(=O)O [VPA, valproic acid]
IC50 (HDAC8 [2]): 7440 µM
IC50 (HDAC9): > 100000 nM
IC50 (HDAC1 [16]): 1.58 mM
IC50 (HDAC7 [17]): > 100 µM
IC50 (HDAC3): 3.07 mM
